From ChEMBL document CHEMBL4823243, “Synergistic induction of apoptosis in resistant head and neck carcinoma and leukemia by alkoxyamide-based histone deacetylase inhibitors” (Eur J Med Chem, 2021) come the findings set out here.

pIC50: −log10 of the molar value. Calls of active or inactive are those of the source. The rule behind the calls is not given here. Bounds are passed on as bounds.

Assay [1] concerns the target Class 1 histone deacetylase (Homo sapiens) (UniProt Q13547+O15379+Q92769+Q9BY41). Put plainly: Inhibition of class-1 HDAC in human CAL-27 cells assessed as induction of histone H-3 acetylation at 5 uM for 24 hrs by Western blot analysis. It counts as cell-based.
Assay [2] has as its system CAL-27. Put plainly: Induction of DNA damage in human CAL-27 cells assessed as upregulation of gamma H2AX in presence cisplatin measured by Western blot analysis. The class given is functional, cell-based. (In general: A western blot detects proteins with antibodies after separation by electrophoresis.)
The next assay has as its target T1, Histone deacetylase 8 (Homo sapiens, UniProt Q9BY41).
T1 sequence (Q9BY41 whole entry): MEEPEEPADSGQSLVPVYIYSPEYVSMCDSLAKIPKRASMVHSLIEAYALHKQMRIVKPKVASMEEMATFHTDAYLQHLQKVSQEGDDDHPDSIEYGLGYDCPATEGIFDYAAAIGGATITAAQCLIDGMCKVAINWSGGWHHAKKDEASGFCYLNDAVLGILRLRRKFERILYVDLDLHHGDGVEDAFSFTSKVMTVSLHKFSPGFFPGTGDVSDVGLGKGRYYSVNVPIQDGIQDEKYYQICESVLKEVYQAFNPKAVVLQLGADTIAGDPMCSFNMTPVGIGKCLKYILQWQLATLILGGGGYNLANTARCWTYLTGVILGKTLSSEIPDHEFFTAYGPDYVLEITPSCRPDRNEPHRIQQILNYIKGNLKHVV
The experiment in a line: Inhibition of recombinant human C-terminal His-fusion tagged/N-terminal Strep2 tagged HDAC8 (1 to 377 residues) expressed in insect cells using Boc-Lys(TFA)-AMC as substrate preincubated for 5 mins followed by substrate addition measured after 90 mins by fluorimetry.

The target in assay [3] is T2, Histone deacetylase (Homo sapiens) (UniProt Q13547+O15379+Q9UBN7+Q92769+Q9UQL6+Q8WUI4+Q9BY41+Q96DB2+P56524+Q9UKV0+Q969S8). The experiment in a line: Inhibition of HDAC in human Cal27CisR cells assessed as combination index at 0.5 uM measured in presence of 10 uM cDDP by MTT-based Chou-Talalay method. It counts as cell-based.
Assay [4] has as its target T3, Protein deacetylase HDAC6 (Homo sapiens) (UniProt Q9UBN7).
T3 sequence (whole entry): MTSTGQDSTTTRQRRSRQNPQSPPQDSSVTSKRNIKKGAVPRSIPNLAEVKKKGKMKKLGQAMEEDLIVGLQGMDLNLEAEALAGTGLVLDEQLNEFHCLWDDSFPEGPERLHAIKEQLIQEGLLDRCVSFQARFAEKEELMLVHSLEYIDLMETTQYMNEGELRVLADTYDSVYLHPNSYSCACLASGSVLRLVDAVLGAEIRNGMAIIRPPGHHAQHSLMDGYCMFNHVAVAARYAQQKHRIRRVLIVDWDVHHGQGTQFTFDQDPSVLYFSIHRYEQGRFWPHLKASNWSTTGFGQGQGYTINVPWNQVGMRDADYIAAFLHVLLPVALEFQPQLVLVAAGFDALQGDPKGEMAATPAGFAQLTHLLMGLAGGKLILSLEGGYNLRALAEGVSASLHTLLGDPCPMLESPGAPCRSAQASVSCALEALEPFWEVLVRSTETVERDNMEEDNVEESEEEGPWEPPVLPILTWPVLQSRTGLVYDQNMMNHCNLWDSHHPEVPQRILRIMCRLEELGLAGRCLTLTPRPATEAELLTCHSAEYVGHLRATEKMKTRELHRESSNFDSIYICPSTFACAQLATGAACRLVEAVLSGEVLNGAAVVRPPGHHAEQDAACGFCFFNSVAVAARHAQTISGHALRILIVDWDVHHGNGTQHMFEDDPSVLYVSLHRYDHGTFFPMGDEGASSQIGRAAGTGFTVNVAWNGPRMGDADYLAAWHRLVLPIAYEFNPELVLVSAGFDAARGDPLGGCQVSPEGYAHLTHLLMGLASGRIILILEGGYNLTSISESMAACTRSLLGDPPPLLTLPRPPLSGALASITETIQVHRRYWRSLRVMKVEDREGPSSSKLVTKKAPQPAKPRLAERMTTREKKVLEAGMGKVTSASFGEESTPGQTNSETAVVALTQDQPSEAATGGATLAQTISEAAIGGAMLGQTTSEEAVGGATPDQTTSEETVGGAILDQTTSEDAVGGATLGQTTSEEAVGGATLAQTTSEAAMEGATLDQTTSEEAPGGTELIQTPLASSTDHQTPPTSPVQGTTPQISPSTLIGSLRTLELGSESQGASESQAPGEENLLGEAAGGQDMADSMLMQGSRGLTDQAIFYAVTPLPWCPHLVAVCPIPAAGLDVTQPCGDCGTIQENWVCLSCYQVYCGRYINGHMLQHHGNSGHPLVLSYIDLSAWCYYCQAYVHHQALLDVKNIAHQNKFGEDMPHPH
Put plainly: Inhibition of HDAC6 in human CAL-27 cells assessed as accumulation of acetylated alpha-tubulin at 5 uM for 24 hrs by Western blot analysis. The class given is cell-based.

Assay [5] concerns CAL-27. Put plainly: Induction of DNA damage in human CAL-27 cells assessed as increase in gamma H2AX phosphorylation pretreated for 24 hrs followed by cisplatin treatment and further incubated for 18 hrs measured by Western blot analysis. It counts as functional, cell-based. The following applies: time 42.0 hrs.
Assay [6] deals with T4, Protein deacetylase HDAC6 (Homo sapiens, UniProt Q9UBN7).
T4 sequence (Q9UBN7 whole entry): T3 sequence (whole entry)
Put plainly: Inhibition of recombinant human N-terminal GST-tagged HDAC6 (1 to 1215 residues) expressed in baculovirus infected insect cells using Boc-Lys(Ac)-AMC as substrate preincubated for 5 mins followed by substrate addition measured after 90 mins by fluorimetry.

The target of a further assay is Histone deacetylase 2 (Homo sapiens, UniProt Q92769). Put plainly: Inhibition of recombinant human full length C-terminal GST-fusion tagged HDAC2 expressed in baculovirus infected insect cells using Boc-Lys(Ac)-AMC as substrate preincubated for 5 mins followed by substrate addition measured after 90 mins by fluorimetry. The class given is cell-based.
The test system of another assay is A2780. The experiment in a line: Antiproliferative activity against human A2780 cells assessed as reduction in cell viability after 72 hrs by MTT assay. The following applies: A2780, 72 h. The class given is functional, cell-based. (In general: Tetrazolium dyes change colour on reduction, which living cells bring about.)
A further assay concerns the target Histone deacetylase 4 (Homo sapiens, UniProt P56524). The experiment in a line: Inhibition of recombinant human N-terminal GST-fusion tagged/C-terminal GST-tagged HDAC4 (627 to 1084 residues) expressed in baculovirus infected insect cells using Boc-Lys(TFA)-AMC as substrate preincubated for 5 mins followed by substrate addition measured after 90 mins by fluorimetry.

Assay [7] relates to CAL-27. The experiment in a line: Antiproliferative activity against human CAL-27 cells assessed as reduction in cell viability after 72 hrs by MTT assay. The class given is functional, cell-based. The following applies: CAL-27, 72 h.
Assay [8] concerns the target T2, Histone deacetylase (Homo sapiens). The experiment in a line: Inhibition of HDAC in human Cal27CisR cells assessed as combination index at 0.5 uM measured in presence of 50 uM cDDP by MTT-based Chou-Talalay method. The class given is cell-based.
A further assay concerns the target Histone deacetylase. The experiment in a line: Inhibition of HDAC in human A2780 cells using Boc-Lys (acetyl)-AMC as substrate preincubated for 18 hrs followed by susbtrate addition and measured after 3 hrs by fluorescence microplate reader assay. The class given is cell-based.
The next assay deals with Cal27CisR. Put plainly: Induction of DNA damage in human Cal27CisR cells assessed as increase in gamma H2AX phosphorylation pretreated for 24 hrs followed by cisplatin treatment and further incubated for 18 hrs measured by Western blot analysis. It counts as functional, cell-based. The following applies: time 42.0 hrs.

Sequence of Histone deacetylase 2 (Q92769 whole entry, the tested form may be a part): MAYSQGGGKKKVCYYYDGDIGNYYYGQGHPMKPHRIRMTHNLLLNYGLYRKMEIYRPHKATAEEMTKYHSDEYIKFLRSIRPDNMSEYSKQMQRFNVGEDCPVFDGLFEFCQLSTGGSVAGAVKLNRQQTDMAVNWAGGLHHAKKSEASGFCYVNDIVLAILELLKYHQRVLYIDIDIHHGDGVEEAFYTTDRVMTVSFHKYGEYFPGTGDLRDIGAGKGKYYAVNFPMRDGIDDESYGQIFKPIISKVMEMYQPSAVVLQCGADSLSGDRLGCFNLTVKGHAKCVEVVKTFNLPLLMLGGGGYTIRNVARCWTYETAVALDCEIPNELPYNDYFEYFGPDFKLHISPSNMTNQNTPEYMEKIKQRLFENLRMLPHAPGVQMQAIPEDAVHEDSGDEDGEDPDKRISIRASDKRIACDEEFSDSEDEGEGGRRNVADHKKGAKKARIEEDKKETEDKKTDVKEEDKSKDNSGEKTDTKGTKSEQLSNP
Sequence of Histone deacetylase 4 (P56524 whole entry, the tested form may be a part): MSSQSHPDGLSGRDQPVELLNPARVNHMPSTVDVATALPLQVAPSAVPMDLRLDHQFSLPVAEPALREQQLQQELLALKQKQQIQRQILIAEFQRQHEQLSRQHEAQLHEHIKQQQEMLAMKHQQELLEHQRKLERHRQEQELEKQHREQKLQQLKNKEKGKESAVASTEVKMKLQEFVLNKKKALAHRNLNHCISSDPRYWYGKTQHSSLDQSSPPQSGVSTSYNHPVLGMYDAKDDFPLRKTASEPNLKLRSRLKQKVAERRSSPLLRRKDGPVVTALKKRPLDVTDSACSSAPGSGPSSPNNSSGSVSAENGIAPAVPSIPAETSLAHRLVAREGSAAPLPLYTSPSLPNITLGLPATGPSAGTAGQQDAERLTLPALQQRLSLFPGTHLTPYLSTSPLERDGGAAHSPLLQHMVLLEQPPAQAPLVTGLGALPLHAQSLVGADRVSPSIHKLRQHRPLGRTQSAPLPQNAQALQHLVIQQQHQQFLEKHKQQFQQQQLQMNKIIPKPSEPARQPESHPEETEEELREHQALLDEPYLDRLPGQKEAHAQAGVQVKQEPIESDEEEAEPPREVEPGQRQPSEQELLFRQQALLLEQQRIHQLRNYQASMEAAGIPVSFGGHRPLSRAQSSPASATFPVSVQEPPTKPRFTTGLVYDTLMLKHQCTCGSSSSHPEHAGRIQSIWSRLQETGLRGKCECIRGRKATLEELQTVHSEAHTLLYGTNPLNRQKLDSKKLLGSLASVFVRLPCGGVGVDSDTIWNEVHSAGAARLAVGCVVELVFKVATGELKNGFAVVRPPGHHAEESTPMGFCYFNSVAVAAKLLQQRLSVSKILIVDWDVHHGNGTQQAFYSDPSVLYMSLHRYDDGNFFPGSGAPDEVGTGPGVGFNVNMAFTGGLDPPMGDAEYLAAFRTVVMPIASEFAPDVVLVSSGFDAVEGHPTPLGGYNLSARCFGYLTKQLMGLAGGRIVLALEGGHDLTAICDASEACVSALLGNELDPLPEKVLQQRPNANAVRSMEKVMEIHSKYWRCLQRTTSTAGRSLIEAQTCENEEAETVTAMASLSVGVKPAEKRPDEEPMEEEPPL

In the case of `O=C(CCCCCONC(=O)c1cc2ccccc2[nH]1)NO`, the outcome (in [1]; in the assay with CAL-27 [2]; with CAL-27 [5]; in the assay with Cal27CisR) was Active. Besides, the negative logarithm of the IC50 (pIC50) (as a rule, the negative decadic logarithm of the IC50, by convention in mol/L) on Histone deacetylase 8 was 4.99; in assay [6], 7.89; at Histone deacetylase 2, 7.24; in the assay on A2780 it was 5.39; at Histone deacetylase 4, 4.25; in the assay on CAL-27 [7] it was 6.52. The CI in [3] stood at 0.27; in [8] it was 0.47. For the same molecule, in assay [4], the inhibition entry was “Active”. Besides, the 50% inhibitory concentration (IC50) (as a rule, the concentration that inhibits the measured activity by half) at Histone deacetylase stood at 670 nM.

Take `O=C(CCCCCONC(=O)c1ccc2ccccc2n1)NO`: the outcome (in assay [1]; in the assay with CAL-27 [2]; in the assay on CAL-27 [5]; with Cal27CisR) was Active. Also, the pIC50 is 5.01 on Histone deacetylase 8; 7.60 in assay [6]; 7.04 at Histone deacetylase 2; 6.10 with A2780; under 4.00 on Histone deacetylase 4; 6.60 in the assay on CAL-27 [7]. The CI in assay [3] worked out at 0.13; in assay [8], 0.5. Further, the inhibition entry in [4] is “Active”. The molecule also returned a half-maximal inhibitory concentration (IC50) against Histone deacetylase of 480 nM.

For the molecule `O=C(CCCCCONC(=O)c1nccc2ccccc12)NO`, the result (in [1]; with CAL-27 [2]; in the assay with CAL-27 [5]; with Cal27CisR) was Active. The pIC50 was 4.91 on Histone deacetylase 8; 6.76 in assay [6]; 6.12 on Histone deacetylase 2; 4.70 with A2780; under 4.00 at Histone deacetylase 4; 5.67 with CAL-27 [7]. The CI came to 1.11 in [3] and 0.97 in assay [8]. Also, the inhibition result in assay [4] was “Active”. On Histone deacetylase, the half-maximal inhibitory concentration (IC50) was found to be 250 nM.
